Source: patent US9504676B2, “Molecules inhibiting a metabolic pathway involving the Syk protein tyrosine kinase and method for identifying said molecules” (CENTRE NATIONAL DE LA RECHERCHE SCIENTIFIQUE, priority 2008, dated 2016)

Tests used:
RBL-2H3 cells = test: FACS analysis of IgE-dependent calcium flow; assay type: cell-based, rat; settings: mast cells
Description: FIG. 3. C-13 inhibits FcεRI-dependent calcium release and degranulation. A. FACS analysis of IgE-dependent calcium flow in RBL-2H3 cells. B. Release of β-hexosaminidase in RBL-2H3 cells sensitised with IgE/DNP. C. Release of β-hexosamlnidase and, D. titration of TNF-α in BMMCs cells sensitised with IgE/DNP; C-13: 3 μM. E. FACS analysis of FCεRI surface expression in RBL-2H3 cells. (0=0.25% DMF). Significant inhibition with C-13 versus DMF: **P<0.01 and *P<0.05.
Binding of Btk and Vav with SLP-76 is critical for regulating PLC-γ activity on the membrane, calcium mobilisation and granule exocytosis^27, 28.
(§1) • 1) Chemical products and antibodies. A chemical bank of 3000 molecules (a varied subset) was acquired from ChemBridge, Inc. (San Diego, Calif.). […] The binding of G4G11 with Syk was assessed by adding the 9E10 monoclonal antibody conjugated with HRP detecting the amino acid sequence EQKLISEEDLN of human c-myc protein located at the C-terminal end of the scFv fragment. To generate Syk mutants, targeted mutagenesis was used on GST:Syk 6-242 protein and the binding of G4G11 with the mutants was assessed in the presence of 5 μM of C-13. • 3) Cells, culture conditions and functional tests. […]

[1] = Observation of toxicity after administration to animals; assay type: in vivo, BALB/c mice
From the text: The pharmaceutical molecule screening approach described herein represents a generic platform wherein the initial use of antibodies makes it possible to detect the domains of the target molecule having a therapeutic potential, thus facilitating the design of chemical molecules (via in silico and/or in vitro screening) capable acting as functional antibody mimics and as potential protein-protein interaction inhibitors.
Finally, to extend these observations to mast cell functions in vivo, the inventors tested the effects of C-13 on passive systemic (PSA) and cutaneous anaphylaxis (PCA) induced in BALB/c mice by administering DNP-specific IgE molecules followed by intravenous stimulation with DNP-KLH hapten. […] The intensity of systemic anaphylaxis was determined by measuring both the drop in body temperature and the increase in vascular permeability following antigen administration.

BALB/c mice = test: Peritonitis: Syk-dependent peritoneal neutrophil recruitment; assay type: in vivo; settings: single oral administration of 100 mg/kg, Bordetella pertussis toxin
LAT = test: Phosphorylation of LAT (phospho-specific antibodies); assay type: cell-based, rat; settings: dose-dependent, RBL-2H3 cells
Lyn = test: FcεRI-dependent Lyn activation in RBL-2H3 cells; assay type: cell-based, rat
From the text: To examine the functional similarities with G4G11, the inventors explored the biological effects of C-13 on mast cell activation. […] Similarly to the intrabody G4G11, C-13 inhibited the phosphorylation and FcεRI-induced kinase activity of Btk (FIG. 2A) and the phosphorylation of PLC-γ1 and PLC-γ2, the two PLC-γ isoforms expressed in mast cells (FIGS. 2A, C). PTK Lyn phosphorylates both Syk and Btk giving rise to the complete activation thereof and the subsequent phosphorylation of PLC-γ^18.
as §1, with “Calif.). Stocks of solutions of small molecules were prepared at a rate of 10 mM in DMSO (dimethylsulphoxide), except for C-13 (methyl 2-{5-[(3-benzyl-4-oxo-2-thioxo-1,3-thiazolidin-5-ylidene)methyl]-2-furyl}benzoate, ChemBridge ID No. 6197026) prepared in DMF (dimethylformamide).” for “Calif.).”

COC(=O)c1ccccc1-c1ccc(/C=C2/SC(=S)N(Cc3ccccc3)C2=O)o1 [Molecule C-13, methyl 2-{5-[(3-benzyl-4-oxo-2-thioxo-1,3-thiazolidin-5-ylidene)methyl]-2-furyl}benzoate]
calcium flow in response to FcεRI binding (RBL-2H3 cells): reduced calcium flow range | signs of toxicity in the animals ([1]; after oral administration, prior to antigen stimulation): no obvious sign of toxicity | apparent toxic effect ([1]; oral or local administration, one hour to 12 days): lack of an apparent toxic effect | Syk-dependent neutrophil recruitment induced by thioglycollate in the peritoneal cavity (BALB/c mice): did not affect | phosphorylation of LAT (LAT): increases | FcεRI-dependent Lyn activation (Lyn): did not affect
